# Source: publication PMC4841536, “Characterization of the Anti-HCV Activities of the New Cyclophilin Inhibitor STG-175” (PLoS ONE, 2016)
# Read-outs that look alike come from different tables or passages of the source.
# Assays:
# [1] = tested on: HIV-1 in mixed PBMCs, NTCP-Huh7 and Huh7.5.1 cells; experiment: Dual/triple co-infection in cell co-cultures, HIV-1 readout; format: cell-based
# [2] = tested on: HCV GT3a subgenomic replicon S52/SG-Feo (AI); experiment: Luciferase reporter replicon antiviral assay, GT3a; format: cell-based; conditions: Hepatitis C virus
# Protocol: The anti-HCV activity of STG-175 was conducted using a panel of luciferase reporter replicon cell lines including GT1a, GT1b, GT2a, GT3a and GT4a as we described previously. The GT1a subgenomic renilla luciferase reporter replicon H77 RLucP (7) was supplied by Dr. Delaney. The GT1b subgenomic firefly luciferase reporter replicon pFK-I389/NS3-3’ [29] was supplied by Dr. Bartenschlager. The GT1B subgenomic NS3, NS5A and NS5B mutants were created via homologous recombination using the In-Fusion HD Cloning kit (Clontech) as we described previously. The GT2a genomic luciferase reporter replicon Luc-Neo-JFH-1 was generated as previously. The plasmid pFK-Luc-JFH1 was supplied from Drs. […] The CellTiter-Fluor™ Cell Viability Assay is a non-lytic fluorescence assay, which measures the number of live cells. […] Luciferase activity was determined using the Luciferase Assay System (Promega) in a Berthold luminometer. […] Viable cells continuously convert resazurin to resorufin, increasing the overall fluorescence and color of the media surrounding cells.
# Fig 2 Anti-HCV activities of STG-175 among GTs. […] Luciferase activity was determined using the Luciferase Assay System in a Berthold luminometer. […] Data are expressed as mean of relative light units and calculated EC50s are presented. […]
# [3] = tested on: HCV (JFH-1) in Huh7.5.1 cells; experiment: Mono-infection, HCV core ELISA; format: cell-based, hepatitis C virus; conditions: both 0.5 and 5 μM, added together with virus, 12 days
# Excerpt: For mono-infections: a) human hepatoma Huh7.5.1 cells were infected with HCV (JFH-1) and viral replication was quantified by HCV core ELISA (Ortho HCV antigen ELISA kit; Ortho Clinical Diagnostics, Waco Chemicals, Inc. or HCV Core ELISA, XpressBio); b) sodium-taurocholate co-transporting polypeptide (NTCP)-positive Huh7 cells were infected with hepatitis B virus (HBV) AD38 (produced from HepAD38 cells) and viral replication was quantified by HBV HBeAg ELISA; and c) human (peripheral blood monocytic cells (PBMCs) were infected with HIV-1 (JR-CSF) and viral replication was quantified by HIV-1 capsid/p24 ELISA. PBMCs were isolated as described previously. The Scripps Research Institute Normal Blood Donor Service (TSRI NBDS) provides TSRI investigators who have Human Subjects Committee-approved protocols with a source of normal blood for their research. Donors are assured of a controlled clinical setting for their blood to be drawn by licensed phlebotomists, and investigators are assured that the donors whose specimens they obtain through the service have been screened upon entry into the program and annually thereafter for a CBC, Hepatitis B and C and HIV-1. Hemoglobin determinations at every donation protect the donor from phlebotomy-induced anemia. […]
smiles,measurement,setting,value
CC=CCC(C)C(O)C1C(=O)NC(CC)C(=O)N(C)C(CSCCCCO)C(=O)N(C)C(CC(C)(C)O)C(=O)NC(C(C)C)C(=O)N(C)C(CC(C)C)C(=O)NC(C)C(=O)NC(C)C(=O)N(C)C(CC(C)C)C(=O)N(C)C(CC(C)C)C(=O)N(C)C(C(C)C)C(=O)N1C (centres unmarked) [STG-175],HIV-1 infection in co-infection,[1]; STG-175 added together with virus,totally blocked
same,established HIV-1 infection in co-infection,[1]; added 3 days post-infection and then every 3 days,almost totally aborted
same,EC50,"[2]; 72 h, read-out: EC50 GT3a",38.9 nM
same,EC50,[2]; read-out: EC50 GT3a (Fig 2D),38.9 nM
same,HCV infection (HCV core ELISA),[3],totally blocked
